Measurements as given in patent publication US20090203753A1, “7-(2-amino-1-hydroxy-ethyl)-4-hydroxybenzothiazol-2(3H)-one-derivatives as beta2 adrenoreceptor agonists” (AstraZeneca AB, priority 2005, published 2009).

Key:
[1] = molecular target: T1, recombinant human Dopamine Subtype D2s receptors (Homo sapiens, UniProt P14416); test: Dopamine D2 selectivity assay, [3H]-spiperone binding to membranes; details: read-out: D2 bind pIC50 (converted)
T1 construct: purchased Perkin Elmer
Procedure: Membranes containing recombinant human Dopamine Subtype D2s receptors were obtained from Perkin Elmer. These were diluted in Assay Buffer (50 mM HEPES, […], 120 mM NaCl, 0.1% gelatin, pH 7.4) to provide a final concentration of membranes that gave a clear window between maximum and minimum specific binding.
Assays were performed in U-bottomed 96-well polypropylene plates. 30 μL [^3H]-spiperone (0.16 nM final concentration) and 30 μL of test compound (10× final concentration) were added to each test well. For each assay plate 8 replicates were obtained for [^3H]-spiperone binding in the presence of 30 μL vehicle (10% (v/v) DMSO in Assay Buffer; defining maximum binding) or 30 μL Haloperidol (10 μM final concentration; defining non-specific binding (NSB)). Membranes were then added to achieve a final volume of 300 μL. The plates were incubated for 2 hours at room temperature and then filtered onto PEI coated GF/B filter plates, pre-soaked for 1 hour in Assay Buffer, using a 96-well plate Tomtec cell harvester. Five washes with 250 μL wash buffer (50 mM HEPES, 1 mM EDTA, 120 mM NaCl, pH 7.4) were performed at 4° C. to remove unbound radioactivity. The plates were dried then sealed from underneath using Packard plate sealers and MicroScint-O (50 μL) was added to each well. The plates were sealed (TopSeal A) and filter-bound radioactivity was measured with a scintillation counter (TopCount, Packard BioScience) using a 3-minute counting protocol.
Total specific binding (B0) was determined by subtracting the mean NSB from the mean maximum binding. NSB values were also subtracted from values from all other wells.

β2 receptor = molecular target: T2, β2 receptor (Homo sapiens, UniProt P07550); test: β2 mediated cAMP production in H292 cells, AlphaScreen cAMP detection (10 minutes with test compound); type: cell-based
T2 construct: endogenous in cells; host or cells: H292 cells
T2 sequence (P07550 whole entry): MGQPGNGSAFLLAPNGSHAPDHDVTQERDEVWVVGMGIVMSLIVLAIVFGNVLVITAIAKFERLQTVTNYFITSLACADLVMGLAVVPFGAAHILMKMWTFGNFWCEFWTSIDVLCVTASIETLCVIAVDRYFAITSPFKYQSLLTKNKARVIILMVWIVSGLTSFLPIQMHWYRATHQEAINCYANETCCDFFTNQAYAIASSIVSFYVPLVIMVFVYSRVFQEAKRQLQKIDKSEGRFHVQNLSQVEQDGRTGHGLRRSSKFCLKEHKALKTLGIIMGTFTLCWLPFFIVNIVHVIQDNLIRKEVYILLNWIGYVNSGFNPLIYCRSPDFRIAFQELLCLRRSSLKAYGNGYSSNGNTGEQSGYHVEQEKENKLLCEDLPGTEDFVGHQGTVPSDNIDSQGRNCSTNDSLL
Procedure: H292 cells were grown in RPMI (Roswell Park Memorial Institute) medium containing, 10% (v/v) FBS (foetal bovine serum) and 2 mM L-glutamine. Cells were grown in 225 cm2 flasks containing 25 mL media in a humidified incubator at 37° C., 5% CO2. Cells were harvested from the flask and passaged at a 1 in 10 dilution once per week.
The media from flasks containing H292 cells was removed, rinsed with 10 mL PBS (phosphate buffered saline) and replaced with 10 mL Accutase™ cell detachment solution. Flasks were incubated for 15 minutes in a humidified incubator at 37° C., 5% CO2. The cell suspension was counted and the cells re-suspended in RPMI media (containing 10% (v/v) FBS and 2 mM L-glutamine) at 0.05×10^6 cells per mL. 5000 cells in 100 μL were added to each well of a tissue-culture-treated 96-well plate and the cells incubated overnight in a humidified incubator at 37° C., 5% CO2. The culture media was removed, washed twice with 100 μL assay buffer and replaced with 50 μL assay buffer. Cells were rested at room temperature for 20 minutes after which time 25 μL of rolipram (1.2 mM made up in assay buffer containing 2.4% (v/v) dimethylsulphoxide) was added. Cells were incubated with rolipram for 10 minutes after which time test compounds (made up as ×4 concentrated stocks in assay buffer containing 4% (v/v) dimethylsulphoxide) were added and the cells were incubated for 10 minutes at room temperature. Final rolipram concentration in the assay was 300 μM and final vehicle concentration was 1.6% (v/v) dimethylsulphoxide. The reaction was stopped by removing supernatants, washing once with 100 μL assay buffer and replacing with 50 μL lysis buffer. The cell monolayer was frozen at −80° C. for 30 minutes (or overnight).
The concentration of cAMP (cyclic adenosine monophosphate) in the cell lysate was determined using the AlphaScreen™ methodology. The frozen cell plate was thawed for 20 minutes on a plate shaker then 10 μL of the cell lysate was transferred to a 96-well white plate. 40 μL of mixed AlphaScreen™ detection beads (containing equal volumes of donor beads (pre-incubated with biotinylated cAMP in the dark for 30 minutes) and acceptor beads), was added to each well and the plate incubated at room temperature for 10 hours in the dark. The AlphaScreen™ signal was measured using an EnVision spectrophotometer (Perkin-Elmer Inc.) with the recommended manufacturer's settings. cAMP concentrations were determined by reference to a calibration curve determined in the same experiment using standard cAMP concentrations (made up in lysis buffer in a 96-well tissue-culture-treated plate and frozen/thawed alongside the test samples) and detected using the same protocol. Concentration response curves for agonists were constructed to determine both the pEC50 and Intrinsic Activity.

T1 sequence (P14416 1-414 isoform P14416-2): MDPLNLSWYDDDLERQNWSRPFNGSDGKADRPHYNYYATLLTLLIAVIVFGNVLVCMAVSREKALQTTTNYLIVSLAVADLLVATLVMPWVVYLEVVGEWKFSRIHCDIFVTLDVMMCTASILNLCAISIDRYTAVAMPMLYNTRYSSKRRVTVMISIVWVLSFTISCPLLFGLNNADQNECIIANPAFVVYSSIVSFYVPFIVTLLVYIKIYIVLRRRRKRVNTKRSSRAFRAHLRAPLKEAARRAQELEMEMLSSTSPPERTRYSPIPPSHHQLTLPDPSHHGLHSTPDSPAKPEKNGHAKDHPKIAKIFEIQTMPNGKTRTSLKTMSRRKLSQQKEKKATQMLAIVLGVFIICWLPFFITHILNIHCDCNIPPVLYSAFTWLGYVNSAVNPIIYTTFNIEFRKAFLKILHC

IC50 [1]: 5010 nM
EC50 (β2 receptor; cAMP, 10 minutes incubation with compound, 300 μM rolipram): 2.51 nM
Intrinsic Activity (β2 receptor; fraction relative to the maximum activity determined for formoterol, 10 minutes incubation): 1.1
SMILES: CCN(CC)CCN(CCNC[C@H](O)c1ccc(O)c2[nH]c(=O)sc12)C(=O)CCOCCc1ccccc1 [Example 7, N-[2-(Diethylamino)ethyl]-N-(2-{[(2R)-2-hydroxy-2-(4-hydroxy-2-oxo-2,3-dihydro-1,3-benzothiazol-7-yl)ethyl]amino}ethyl)-3-(2-phenylethoxy)propanamide]
